# From patent publication US10065950B2, “Substituted thiazoles as HIV integrase inhibitors” (Japan Tobacco Inc., priority 2010, dated 2018)
# Target: HIV-1 pNL4-3 integrase (Human immunodeficiency virus type 1 group M subtype B (isolate NY5) (HIV-1), UniProt P12497)
# Assay: Determination of enzyme (HIV integrase) inhibitory activity
# Assay type: biochemical
# Details: calculated from inhibition rate (fluorescence)
# Procedure: The following explains evaluation methods of the HIV integrase inhibitory activity of the compound of the present invention.
# A full-length gene sequence (Accession No.: M19921) of HIV-1 pNL4-3 integrase was inserted into restriction enzyme Nde I and Xho I sites of plasmid pET21a(+) (manufactured by Novagen) to construct an integrase expression vector pET21a-IN-Wild type.
# Escherichia coli recombinant BL21(DE3) transformed with plasmid pET21a-IN-Wild type obtained in (i) was shake cultured at 30° C. in a liquid medium containing ampicillin. When the culture reached the logarithmic growth phase, isopropyl-β-D-thiogalactopyranoside was added to promote expression of integrase gene. The culture was continued for 5 hr to promote accumulation of the integrase protein. The recombinant E. coli was collected in pellets by centrifugal separation and preserved at −80° C.
# This Escherichia coli was suspended in Lysis buffer (50 mM Tris-HCl (pH 7.6), 10 mM MgCl2, 5 mM DTT), and disrupted by repeating treatments of pressurization and depressurization, and insoluble fraction was collected by centrifugation at 4° C., 18,000 rpm for 60 min. This was suspended in Lysis buffer containing a protease inhibitor, […] and 10 mM CHAPS were added, and the mixture was stirred at 4° C. for 30 min. Water-soluble fraction was collected by centrifugation at 4° C., 9,000 rpm for 30 min. The obtained fraction was diluted with a column buffer (50 mM Tris-HCl (pH 7.6), 1 mM DTT, 10% Glycerol, 10 mM CHAPS) to 5-fold, and the mixture was applied to heparin column (HiPrep 16/10 Heparin FF column: manufactured by GE Healthcare Bio-Sciences). Using a column buffer containing 1M NaCl, a protein was eluted with 0-1M NaCl concentration gradient, and an eluted fraction containing an integrase protein was collected. The obtained fraction was diluted 5-fold with a column buffer (50 mM Tris-HCl (pH 7.6), 1 mM DTT, 10% Glycerol, 10 mM CHAPS), and the mixture was applied to cation exchange column (Mono-S column: manufactured by GE Healthcare Bio-Sciences). Using a column buffer containing 1M NaCl, a protein was eluted with 0-1M NaCl concentration gradient, and an eluted fraction containing an integrase protein was collected. The obtained fractions of the integrase protein were collected, and preserved at −80° C.
# The following DNA synthesized by FASMAC was dissolved in TE buffer (10 mM Tris-hydrochloric acid (pH 8.0), 1 mM EDTA) and mixed with donor DNA, target DNA, and each complementary strand (+ and − strands) to 1 μM. The mixture was heated at 95° C. for 5 min, 80° C. for 10 min, 70° C. for 10 min, 60° C. for 10 min, 50° C. for 10 min and 40° C. for 10 min and kept at 25° C. to give a double stranded DNA, which was used for the test.
# Donor DNA (+strand having biotin attached to the 5′ terminal)
# Target DNA (+, − strands both having digoxigenin attached to the 3′ terminal)
# The donor DNA was diluted with TE buffer to 20 nM, of which 50 μL was added to each well of streptavidin-coated black plate (manufactured by PIAS Corporation) and allowed to adsorb at 37° C. for 20 min. The plate was washed with phosphate buffer (Dulbecco's PBS, Sanko Junyaku Co., Ltd.) containing 0.1% Tween 20 and phosphate buffer. Then, an enzyme reaction mixture (70 μL), a test substance (10 μL) diluted with the enzyme reaction mixture and 0.75 μM integrase protein (10 μL) were added to each well and the mixture was reacted at 37° C. for 60 min. composition of enzyme reaction mixture: 30 mM MOPS (3-morpholinopropanesulfonic acid), 5 mM magnesium chloride, 3 mM DTT (dithiothreitol), 0.1 mg/mL BSA (bovine serum albumin), 5% glycerol, 10% DMSO (dimethyl sulfoxide), 0.01% Tween 20.
# Then, 25 nM target DNA (10 μL) was added, and the mixture was reacted at 37° C. for 20 min and washed with phosphate buffer containing 0.1% Tween 20 to stop the reaction. […]
row,Structure (SMILES),IC50 [nM]
1,CC(C)N1C[C@](C)(C(=O)N2CCC2)n2cc(-c3nnc(Cc4ccc(F)cc4)s3)c(=O)c(O)c2C1=O [Example 2],13
2,CCC(=O)N(C)CC1(C)CN(C(C)C)C(=O)c2c(O)c(=O)c(-c3ncc(Cc4ccc(F)cc4F)s3)cn21 (stereo not shown) [Example 7],13
3,CC(C)N1CC2(CCOCC2)n2cc(-c3nnc(Cc4ccc(F)cc4F)s3)c(=O)c(O)c2C1=O [Example 8],8.9
4,COCC1CN(C(C)C)C(=O)c2c(O)c(=O)c(-c3nnc(Cc4ccc(F)cc4F)s3)cn21 (stereo not shown) [Example 18],8.2
5,CC(C)N1CC(CO)n2cc(-c3ncc(Cc4ccc(F)cc4F)s3)c(=O)c(O)c2C1=O (stereo not shown) [Example 19],8.1
6,CC(C)N1CC(C)(CO)n2cc(-c3ncc(Cc4ccc(F)cc4F)s3)c(=O)c(O)c2C1=O (stereo not shown) [Example 20],17
7,CC(C)N1CC(CC(=O)N(C)C)n2cc(-c3ncc(Cc4ccc(F)cc4F)s3)c(=O)c(O)c2C1=O (stereo not shown) [Example 21],9.4
8,CNC(=O)C1CN(C(C)C)C(=O)c2c(O)c(=O)c(-c3ncc(Cc4ccc(F)cc4F)s3)cn21 (stereo not shown) [Example 22],7
9,CC(C)N1CC(C(=O)O)n2cc(-c3ncc(Cc4ccc(F)cc4F)s3)c(=O)c(O)c2C1=O (stereo not shown) [Example 23],12
10,CC(C)N1CC(C)(C(=O)O)n2cc(-c3ncc(Cc4ccc(F)cc4F)s3)c(=O)c(O)c2C1=O (stereo not shown) [Example 24],23
11,CCNC(=O)C1CN(C(C)C)C(=O)c2c(O)c(=O)c(-c3ncc(Cc4ccc(F)cc4F)s3)cn21 (stereo not shown) [Example 25],11
12,CC(C)N1CC(C(=O)N(C)C)n2cc(-c3ncc(Cc4ccc(F)cc4F)s3)c(=O)c(O)c2C1=O (stereo not shown) [Example 26],7.6
13,CCNC(=O)C1(C)CN(C(C)C)C(=O)c2c(O)c(=O)c(-c3ncc(Cc4ccc(F)cc4F)s3)cn21 (stereo not shown) [Example 27],10
14,CC(C)N1CC(C)(C(=O)N(C)C)n2cc(-c3ncc(Cc4ccc(F)cc4F)s3)c(=O)c(O)c2C1=O (stereo not shown) [Example 28],15
15,CNC(=O)C1(C)CN(C(C)C)C(=O)c2c(O)c(=O)c(-c3ncc(Cc4ccc(F)cc4F)s3)cn21 (stereo not shown) [Example 29],10
16,O=C1c2c(O)c(=O)c(-c3nnc(Cc4ccc(F)cc4F)s3)cn2C2(CCOCC2)CN1C1CC1 [Example 30],9
17,CC(C)NC(=O)C1CN(C(C)C)C(=O)c2c(O)c(=O)c(-c3ncc(Cc4ccc(F)cc4F)s3)cn21 (stereo not shown) [Example 31],8.3
18,CC(C)CNC(=O)C1CN(C(C)C)C(=O)c2c(O)c(=O)c(-c3ncc(Cc4ccc(F)cc4F)s3)cn21 (stereo not shown) [Example 32],7.7
19,CC(C)N1CC(CC(=O)O)n2cc(-c3ncc(Cc4ccc(F)cc4F)s3)c(=O)c(O)c2C1=O (stereo not shown) [Example 33],6.2
20,CNC(=O)CC1CN(C(C)C)C(=O)c2c(O)c(=O)c(-c3ncc(Cc4ccc(F)cc4F)s3)cn21 (stereo not shown) [Example 34],8.2
21,CC(C)N1CC(CC(N)=O)n2cc(-c3ncc(Cc4ccc(F)cc4F)s3)c(=O)c(O)c2C1=O (stereo not shown) [Example 35],6.7
22,CC(C)NC(=O)CC1CN(C(C)C)C(=O)c2c(O)c(=O)c(-c3ncc(Cc4ccc(F)cc4F)s3)cn21 (stereo not shown) [Example 36],13
23,CC(C)N1C(=O)c2c(O)c(=O)c(-c3nnc(Cc4ccc(F)cc4F)s3)cn2CC1CO (stereo not shown) [Example 37],6.3
24,CC(C)N1CC(C)(C(=O)N2CCCCC2)n2cc(-c3ncc(Cc4ccc(F)cc4F)s3)c(=O)c(O)c2C1=O (stereo not shown) [Example 38],12
25,CC(C)N1CC(C)(C(=O)N2CCCC2)n2cc(-c3ncc(Cc4ccc(F)cc4F)s3)c(=O)c(O)c2C1=O (stereo not shown) [Example 39],10
26,CC(C)CNC(=O)CC1CN(C(C)C)C(=O)c2c(O)c(=O)c(-c3ncc(Cc4ccc(F)cc4F)s3)cn21 (stereo not shown) [Example 40],13

row,Structure (SMILES),IC50 [nM]
1,CC(C)N1CC(CC(=O)N2CCCCC2)n2cc(-c3ncc(Cc4ccc(F)cc4F)s3)c(=O)c(O)c2C1=O (stereo not shown) [Example 41],7.2
2,COCC1Cn2cc(-c3nnc(Cc4ccc(F)cc4F)s3)c(=O)c(O)c2C(=O)N1C(C)C (stereo not shown) [Example 42],3.4
3,COCC1Cn2cc(-c3nnc(Cc4ccc(F)cc4F)s3)c(=O)c(O)c2C(=O)N1CC(C)C (stereo not shown) [Example 43],4.6
4,COCCOC[C@H]1CN(C(C)C)C(=O)c2c(O)c(=O)c(-c3nnc(Cc4ccc(F)cc4F)s3)cn21 [Example 44],8.1
5,COCCOC[C@H]1CN(CC(C)C)C(=O)c2c(O)c(=O)c(-c3nnc(Cc4ccc(F)cc4F)s3)cn21 [Example 45],11
6,COCCOC[C@@H]1CN(C(C)C)C(=O)c2c(O)c(=O)c(-c3nnc(Cc4ccc(F)cc4F)s3)cn21 [Example 46],11
7,COCCOC[C@@H]1CN(CC(C)C)C(=O)c2c(O)c(=O)c(-c3nnc(Cc4ccc(F)cc4F)s3)cn21 [Example 47],12
8,COCCOC[C@@H]1Cn2cc(-c3nnc(Cc4ccc(F)cc4F)s3)c(=O)c(O)c2C(=O)N1CC(C)C [Example 48],6.9
9,CC(C)N1CC(CC#N)n2cc(-c3ncc(Cc4ccc(F)cc4F)s3)c(=O)c(O)c2C1=O (stereo not shown) [Example 49],5.1
10,CC(C)N1C(=O)c2c(O)c(=O)c(-c3nnc(Cc4ccc(F)cc4F)s3)cn2CC1C(=O)O (stereo not shown) [Example 50],6.4
11,CNC(=O)C1Cn2cc(-c3nnc(Cc4ccc(F)cc4F)s3)c(=O)c(O)c2C(=O)N1C(C)C (stereo not shown) [Example 51],5.7
12,CC(C)N1CC(C)(C(=O)N2CCOCC2)n2cc(-c3ncc(Cc4ccc(F)cc4F)s3)c(=O)c(O)c2C1=O (stereo not shown) [Example 52],13
13,CC(C)N1C(=O)c2c(O)c(=O)c(-c3nnc(Cc4ccc(F)cc4F)s3)cn2CC1C(=O)N(C)C (stereo not shown) [Example 53],10
14,COCCOC[C@@H]1Cn2cc(-c3nnc(Cc4ccc(F)cc4F)s3)c(=O)c(O)c2C(=O)N1C(C)C [Example 54],7.5
15,COCCOC[C@H]1Cn2cc(-c3nnc(Cc4ccc(F)cc4F)s3)c(=O)c(O)c2C(=O)N1CC(C)C [Example 55],21
16,COCCOC[C@H]1CN(C(C)C)C(=O)c2c(O)c(=O)c(-c3ncc(Cc4ccc(F)cc4F)s3)cn21 [Example 56],10
17,COCCOC[C@H]1CN(CC(C)C)C(=O)c2c(O)c(=O)c(-c3ncc(Cc4ccc(F)cc4F)s3)cn21 [Example 57],11
18,COCCOC[C@H]1Cn2cc(-c3ncc(Cc4ccc(F)cc4F)s3)c(=O)c(O)c2C(=O)N1CC(C)C [Example 58],17
19,COCCOC[C@H]1Cn2cc(-c3ncc(Cc4ccc(F)cc4F)s3)c(=O)c(O)c2C(=O)N1C(C)C [Example 59],12
20,COCCOC[C@H]1Cn2cc(-c3nnc(Cc4ccc(F)cc4F)s3)c(=O)c(O)c2C(=O)N1C(C)C [Example 60],17
21,COCC1Cn2cc(-c3ncc(Cc4ccc(F)cc4F)s3)c(=O)c(O)c2C(=O)N1C(C)C (stereo not shown) [Example 61],6.6
22,COCC1Cn2cc(-c3ncc(Cc4ccc(F)cc4F)s3)c(=O)c(O)c2C(=O)N1CC(C)C (stereo not shown) [Example 62],9.2
23,COCC1CN(CC(C)C)C(=O)c2c(O)c(=O)c(-c3nnc(Cc4ccc(F)cc4F)s3)cn21 (stereo not shown) [Example 63],8.3
24,CC(C)N1C(=O)c2c(O)c(=O)c(-c3nnc(Cc4ccc(F)cc4F)s3)cn2CC1C#N (stereo not shown) [Example 64],6.1
25,CC(C)N1CC(CN2C(=O)c3ccccc3C2=O)n2cc(-c3ncc(Cc4ccc(F)cc4F)s3)c(=O)c(O)c2C1=O (stereo not shown) [Example 65],13
26,CC(C)N1CC(CN)n2cc(-c3ncc(Cc4ccc(F)cc4F)s3)c(=O)c(O)c2C1=O (stereo not shown) [Example 66],6.4
